Assay results published in PubChem BioAssay AID1996.
In brackets after ≈: the same amount, converted by molar mass.

conditions: buffer; pH 7.4; 200.0 µM

Row | SMILES | solubility kinetic [µg/mL]
1 | COc1cccc(-c2nc(-c3ccncc3)no2)c1 | 3.5 (≈ 13.8 µM)
2 | COc1cc(C(=O)O)ccc1OCc1ccncc1 | > 38.9
3 | CC(=O)c1cc(F)ccc1OCC(=O)Nc1ccc2c(c1)OCO2 | 7.8 (≈ 23.5 µM)
4 | CC1(C)Cc2ccccc2C(CSc2ccccc2C(=O)O)=N1 | 43.1 (≈ 132 µM)
5 | Cc1ccccc1NC(=O)NC(C)(C)CC(C)(C)C | 1.3 (≈ 4.95 µM)
6 | COc1ccc2c(c1)CCC/C2=N\OC(=O)c1ccccc1F | < 0.7
7 | Cc1ccc(N2C(=O)CSC2=S)cc1C | < 0.5
8 | Cc1ccccc1NC(=O)NC1CCCc2ccccc21 (centres undefined) | 0.9 (≈ 3.21 µM)
9 | CC(C)(C)NC(=O)COc1ccc(S(=O)(=O)N2CCCC2)cc1 | > 51.1
10 | O=C(c1ccccc1)N1CCN(CCc2ccccn2)CC1 | > 44.3
11 | Cc1ccc(C(=O)Cc2nc3ccccc3[nH]2)cc1 | 30.5 (≈ 122 µM)
12 | Cc1cc(S(=O)(=O)NCc2ccc3c(c2)OCO3)ccc1F | 46.8 (≈ 145 µM)
13 | CN(C)c1ccc(P(=O)(OC2CCCCC2)C(O)c2ccncc2)cc1 (centres undefined) | 52.8 (≈ 141 µM)
14 | CC(=O)c1ccc[n+](CC(=O)NC(C)c2ccccc2)c1.[Cl-] (centres undefined) | > 47.8
15 | CC1CCN(C(=O)CN(Cc2ccc(Cl)cc2)S(C)(=O)=O)CC1 | 52.8 (≈ 147 µM)
16 | Cc1ccc(S(=O)(=O)N2CCCCCC2)cc1C(=O)NCc1ccccn1 | 55.7 (≈ 144 µM)
17 | OCC1(Cc2ccccc2)CCN(Cc2ccccn2)CC1 | > 44.5
18 | Cc1ccc2c(COC(=O)CNC(=O)c3ccco3)cc(=O)oc2c1C | 13.1 (≈ 36.9 µM)
19 | O=C1CC(Cc2ccccc2)C(=O)N1c1ccccn1 (centres undefined) | > 39.9
20 | N/C(=N\OC(=O)Nc1ccccc1)c1ncc([N+](=O)[O-])s1 | 3.8 (≈ 12.4 µM)
21 | Cc1ccc(N(CC(=O)NCC2CCCO2)S(=O)(=O)c2ccc(Cl)cc2)cc1C (centres undefined) | 40.2 (≈ 92 µM)
22 | N#Cc1c(N2C(=O)c3ccc(C(=O)O)cc3C2=O)sc2c1CCCC2 | > 52.9
23 | NS(=O)(=O)c1cccc(NC(=O)c2ccc(S(=O)(=O)N3CCCCCC3)cc2)c1 | 7.1 (≈ 16.2 µM)
24 | O=C(/C=C/c1ccco1)Nc1scc(-c2ccccc2)c1C(=O)O | 48.9 (≈ 144 µM)

Row | SMILES | solubility kinetic [µg/mL]
25 | Cc1cccc(-c2nc(C#N)c(N3CCC(C)CC3)o2)c1 | < 0.2
26 | Cc1ccc(C)c(SCC(=O)N(C)C2CCS(=O)(=O)C2)c1 (centres undefined) | > 49.1
27 | Cc1nc(NC(=O)CSC2=NCCS2)sc1C(=O)N(C)C | > 51.7
28 | CCS(=O)(=O)NCCNc1ccc([N+](=O)[O-])cc1 | > 41
29 | Cc1ccc(C(CC(=O)O)NC(=O)CCNC(=O)c2ccco2)cc1 (centres undefined) | > 51.7
30 | CCCN1CCC(N(CCc2ccccc2)Cc2ccccc2)CC1 | 32.5 (≈ 96.6 µM)
31 | CCC(OCC(O)CN1CCCCC1)c1ccccc1.Cl (centres undefined) | > 47.1
32 | c1ccc(CCn2cnc3ccccc32)cc1 | 29.3 (≈ 132 µM)
33 | CCC(=O)N1CCCc2ccccc21 | 22.4 (≈ 118 µM)
34 | CC(=O)c1cccc(NC(=O)CN2C(=O)c3ccccc3C2=O)c1 | 13.9 (≈ 43.1 µM)
35 | O=C(COC(=O)/C=C/c1cccc(Cl)c1)NC1CC1 | 4.8 (≈ 17.2 µM)
36 | Cc1ccc(NC2CCCN(C(=O)c3cccs3)C2)cc1C (centres undefined) | 47.1 (≈ 150 µM)
37 | COc1ccc(NC(=O)CSc2nnc(-c3cccnc3)n2C)cc1 | > 53.3
38 | O=C(Nc1sc2c(c1C(=O)O)CCC2)C(=O)N1CCOCC1 | > 48.7
39 | OCCN(Cc1ccccc1)c1ncnc2sccc12 | > 42.8
40 | COc1ccc(CNc2nc3ccccc3s2)cc1OC | 1.4 (≈ 4.66 µM)
41 | O=C(Nc1ccc(F)cc1)C(Cc1ccccc1)n1cccc1 (centres undefined) | 31.4 (≈ 102 µM)
42 | O=C(NCCN1CCOCC1)c1cc([N+](=O)[O-])ccc1Cl | > 47.1
43 | CNCCc1ccc(O)c(O)c1.Cl | 17.2
44 | CCc1ccccc1NC(=O)c1cnn(-c2ccccc2)c1C | > 45.8
45 | CC(=O)Nc1cccc(NC(=S)Nc2cccc(Cl)c2Cl)c1 | 26 (≈ 73.4 µM)
46 | O=c1c2ccccc2sn1-c1nccs1 | 1.4 (≈ 5.98 µM)
47 | CC(=O)O.O=S(=O)(Cc1ccccc1)N1CCNCC1 | 34.3
48 | CCOc1cc2c(cc1/C=C1/NC(=O)N(CC(=O)OC)C1=O)OCO2 | 2.9 (≈ 8.33 µM)

Row | SMILES | solubility kinetic [µg/mL]
49 | CC1CN(CCc2ccccc2)c2nc3c(c(=O)n(C)c(=O)n3C)n2C1 (centres undefined) | 41.7 (≈ 118 µM)
50 | COc1ccc(NC(=O)COC(=O)c2ccc([N+](=O)[O-])o2)cc1Cl | 19.2 (≈ 54.1 µM)
51 | CCC(C)[C@H](NC(=O)Nc1ccc(C)cc1C)C(=O)O (some centres undefined) | 31.8 (≈ 114 µM)
52 | CC(C(=O)O)N1C(=O)C2C3c4ccccc4C(c4ccccc43)[C@@H]2C1=O (some centres undefined) | > 52.1
53 | Cn1cccc1/C=C1/C(=O)NC(=O)N(Cc2ccc(F)cc2)C1=O | 5.4 (≈ 16.5 µM)
54 | CCOC(=O)CSc1nc(-c2ccccc2)nc2ccc(C)cc12 | < 0.4
55 | O=C(Cc1ccccc1)NCc1ccncc1 | 28.2 (≈ 125 µM)
56 | COc1c(C(=O)Nc2nccs2)ccc2ccccc12 | 17 (≈ 59.8 µM)
57 | CC12CC3(C)CC(C)(C1)CC(C(N)=O)(C2)C3 | 31 (≈ 140 µM)
58 | CC(C)CCNC(=O)c1cc(-c2cccs2)nc2ccccc12 | < 0.3
59 | O=C(Nc1ccc(S(=O)(=O)Nc2ncccn2)cc1)C12CC3CC(CC(Cl)(C3)C1)C2 | > 67
60 | O=C1Nc2ccccc2S/C1=C/c1cccs1 | < 0.6
61 | CSc1ccccc1NC(=O)c1ccc([N+](=O)[O-])cc1 | 15.9 (≈ 55.1 µM)
62 | COc1ccc(CNC(=O)COC(=O)c2cccs2)cc1 | 29.1 (≈ 95.3 µM)
63 | CN(C(=O)c1ccco1)c1nc(-c2ccccc2)cs1 | < 0.3
64 | CCOC(=O)Cc1c(C)nc(N)[nH]c1=O | 31.1 (≈ 147 µM)
65 | Cc1cc(C(=O)NC2CC2)c2ccccc2n1 | 29.5 (≈ 130 µM)
66 | CCOC(=O)C1=C(COC(=O)Cc2ccccc2)NC(=O)NC1C (centres undefined) | > 49.9
67 | CC1(C)CCC(=O)C=C1Nc1ccc(F)c(Cl)c1 | 38.2 (≈ 143 µM)
68 | COc1ccc([N+](=O)[O-])c(OC)c1C(=O)NC(=O)Nc1c(C)cccc1C | 0.9 (≈ 2.41 µM)
69 | O=c1c2sccc2[nH]c(=S)n1-c1ccccc1 | 38.5 (≈ 148 µM)
70 | Cc1ccccc1NC(=O)c1cccc(S(=O)(=O)Nc2cccc(C(=O)O)c2)c1 | 34.6 (≈ 84.3 µM)
71 | O=C(/C=C/c1ccc(Cl)cc1)Nc1cc(S(=O)(=O)N2CCOCC2)ccc1N1CCOCC1 | 5.9 (≈ 12 µM)
72 | O=C(CN1CCOCC1)Nc1ccc(F)cc1 | > 35.7

Row | SMILES | solubility kinetic [µg/mL]
73 | O=C1Nc2ccc(Br)cc2C1(O)c1ccc(F)cc1 (centres undefined) | > 48.3
74 | O=C1CSC(c2cccnc2)N1c1cccc(Cl)c1 (centres undefined) | 43.3 (≈ 149 µM)
75 | O=C1CCCc2c1nc(-c1ccc(F)cc1)n2O | > 36.9
76 | CC(=O)Nc1scc(C)c1-c1nc2ccccc2s1 | < 0.3
77 | Cc1ccccc1NC(=O)NC1(C(=O)N2CCC(O)CC2)CCCCC1 | 44.1 (≈ 123 µM)
78 | O=C(COC(=O)c1cc[n+]([O-])cc1)NC(=O)c1ccc(OC(F)F)cc1 | > 54.9
79 | C=CCNC(=O)/C(C#N)=C/c1ccc2c(c1)OCCO2 | 7 (≈ 25.9 µM)
80 | CC(C)[C@H](NS(=O)(=O)c1ccccc1)C(=O)OCC(=O)Nc1cccc(S(N)(=O)=O)c1 | 61.6 (≈ 131 µM)
81 | CC1CCCC(NC(=O)COC(=O)CCC(=O)c2cccs2)C1C (centres undefined) | > 52.7
82 | CCOC(=O)c1cccc(NC(=O)N2CCOCC2)c1 | > 41.7
83 | CC1CCN(C(=O)COC(=O)/C=C/c2ccco2)CC1 | > 41.6
84 | Cc1ccc(S(=O)(=O)N(C)CC(=O)N2CC(C)OC(C)C2)cc1 (centres undefined) | > 51.1
85 | CCN(CC)S(=O)(=O)c1cc(NC(=O)CSCc2c(C)noc2C)ccc1C | > 63.8
86 | O=C(Oc1ccc(OC(=O)N2CCCCC2)cc1)N1CCCCC1 | 1.1 (≈ 3.31 µM)
87 | COc1ccc(/C=C(\C#N)C(=O)NCc2ccccc2)cc1 | 2.2 (≈ 7.53 µM)
88 | CC(NC(=O)C(=O)NCc1cccs1)c1ccccc1 (centres undefined) | 2.5 (≈ 8.67 µM)
89 | CCCSCCCNC(=O)Cn1c(=O)c2cccn2c2ccccc21 | 7.7 (≈ 21.5 µM)
90 | COc1cc(OC)c(OC)cc1CN1CCSCC1 | 32.3 (≈ 114 µM)
91 | O=C(O)C1=C(C(=O)Nc2cc(C(F)(F)F)ccc2Cl)CCCC1 | 12.5 (≈ 35.9 µM)
92 | COC(=O)c1scc(S(=O)(=O)c2ccccc2)c1N | 1.9 (≈ 6.39 µM)
93 | O=C(CNC(=O)c1cccs1)NCC(=O)OCC(=O)c1ccccc1 | > 54.1
94 | O=C(NCc1ccccc1)C1CC(=O)N(C2CCCCC2)C1 (centres undefined) | > 45.1
95 | CN(Cc1c(F)cccc1Cl)C(=O)c1ccc(NC(=O)CC2SC(N3CCCCC3)=NC2=O)cc1 (centres undefined) | 53.2 (≈ 103 µM)
96 | Cc1ccc(C)c(C(C)NC(=O)C2CCCO2)c1 (centres undefined) | 36.7 (≈ 148 µM)

Row | SMILES | solubility kinetic [µg/mL]
97 | CS(=O)(=O)c1ccccc1C(=O)Nc1cccc2ncccc12 | 35.9 (≈ 110 µM)
98 | Cc1cc(=O)[nH]c(SCC(=O)NCC2CCCCC2)c1C#N | > 47.9
99 | C/C(=N\OCc1ccc(C#N)cc1)c1ccccc1 | < 0.3
100 | CCc1ccc(S(=O)(=O)Nc2ccccn2)cc1 | > 39.3
101 | CC(=O)Oc1ccccc1-c1nc(/C=C/c2ccccc2)no1 | < 0.3
102 | CSc1c(C#N)c(N)nc2sc(C(=O)c3ccccc3)c(N)c12 | 3.1 (≈ 9.11 µM)
103 | C=CCC(C(=O)OC)(C(=O)OC)c1ccccc1[N+](=O)[O-] | > 44
104 | O=C(Nc1ccccc1)Nc1ccccc1C(=O)NCCCN1CCOCC1 | 46.3 (≈ 121 µM)
105 | C1=CCN(Cc2ccccc2)C1 | 4.1 (≈ 25.7 µM)
106 | CC(C)/C=C1\CCc2c([nH]c3ccccc23)C1=O | 1.5 (≈ 6.27 µM)
107 | O=C(COC(=O)COc1ccc(Cl)cc1Cl)NC1CC1 | > 47.7
108 | Cc1ccc(S(=O)(=O)NC(C)CCc2ccccc2)cc1C(N)=O (centres undefined) | > 52
109 | Cc1cc(=O)[nH]c(SCC(=O)Nc2ccccc2[N+](=O)[O-])n1 | > 48
110 | Cn1c(=O)n(C)c2cc(NC(=O)CSc3ccccc3)ccc21 | > 49.1
111 | O=C(CN1CCCc2ccccc21)Nc1ccc(F)cc1[N+](=O)[O-] | < 0.2
112 | N#Cc1ccccc1NC(=O)CN1CCN(c2ccccn2)CC1 | > 48.2
113 | Cc1cc(OCCCn2ccnc2)ccc1[N+](=O)[O-].O=C(O)C(=O)O | 36.8
114 | COc1ccc(CN(C)CC(=O)Nc2cccc(S(=O)(=O)N3CCCC3)c2)cc1F | 44 (≈ 101 µM)
115 | CC1(C)C2CCC1(CS(=O)(=O)N1CCCC1C(=O)O)C(=O)C2 (centres undefined) | > 49.4
116 | CC1(C)CC(C(N)=S)CCO1 (centres undefined) | 23.5 (≈ 136 µM)
117 | Cc1nc2ccc(NC(=O)c3cccs3)cc2s1 | 8.4 (≈ 30.6 µM)
118 | COc1cccc(C(=O)c2cc3cc(Cl)ccc3[nH]2)c1 | < 0.6
119 | COc1ccc(/C=C/C(=O)N2CC(C)OC(C)C2)cc1OC (centres undefined) | 45.4 (≈ 149 µM)
